Some results are limits rather than exact numbers.

Data set [1] has as its system experimental amnesia in mice induced by cycloheximide. In words: Anti-amnesic effect: passive avoidance task (step-through), cycloheximide-induced amnesia. It counts as in vivo, ddY male mice. The conditions noted are these: for Step-through latency: mean of group. How it is done: (§1) As experimental animals, Wistar male rats and ddY male mice were used for the tests after they were housed for a week under every 12 hours' dark-light cycle at room temperature of 24° to 26° C.
The effect on experimental amnesia in mice induced by cycloheximide was evaluated.
The experiment was carried out using an experimental apparatus of passive avoidance task for mice (made by Ohara-ika-sangyo K. K.) comprising a box divided into the two compartments of dark and light. That is, the dark compartment [a box having a reverse trapezoid cross section (height: 8 cm, base line: 5 cm, oblique line: 9.5 cm) and having the length of 14 cm] was shield from a light with a black plastic case and was floored with stainless grids for giving an electrical shock so that an electricity might be turned on a determined time after interception of a photobeam placed in the dark compartment. The light compartment made of transparent plastic (a box of the same shape as that of the dark compartment having the length of 16 cm, lightened from a location spaced 25 cm above by a 60 W electric lamp) was provided adjacent to the dark compartment. Between the two compartments, there was provided a circular entrance having the diameter of 3 cm with a guillotine door which could be opened and closed. By using the above-mentioned dark-light box, the experiment was carried out according to the following procedure.
A mouse (5 week-old) previously conditioned in the dark-light box was put in the light compartment and the guillotine door was opened. Three seconds after the mouse moved into the dark compartment and interrupted the photobeam, 0.3 mA electrical shock was given to limbs for 3 seconds from the floor grid (aquisition trial). Just after the mouse rushed into the light compartment, the door was shut and the […] in the light compartment was picked out to return to his home cage. After 24 hours, the mouse was placed again in the light compartment and the period from the opening of the guillotine door to the time the mouse completely entered the dark compartment was recorded maximally 300 seconds as a step-through latency (retention trial).
The amnesia was induced by subcutaneous injection of cycloheximide (120 mg/kg) dissolved in saline 10 minutes before the aquisition trial. As a control, the same amount of saline alone was administered. […]
A ratio of number of mice showing the step-through latency of more than 100 seconds in the group was defined as a ratio of memory for convenience's sake.
The step-through latency in Table 2 was the mean value for each treated group.

In a further data set the target is T1, M1 receptor (Rattus norvegicus, UniProt P08482).
T1 construct: rat's brain except for cerebellum was homogenized; from tissue; host or cells: rat brain except cerebellum, homogenate
T1 sequence (P08482 1-460): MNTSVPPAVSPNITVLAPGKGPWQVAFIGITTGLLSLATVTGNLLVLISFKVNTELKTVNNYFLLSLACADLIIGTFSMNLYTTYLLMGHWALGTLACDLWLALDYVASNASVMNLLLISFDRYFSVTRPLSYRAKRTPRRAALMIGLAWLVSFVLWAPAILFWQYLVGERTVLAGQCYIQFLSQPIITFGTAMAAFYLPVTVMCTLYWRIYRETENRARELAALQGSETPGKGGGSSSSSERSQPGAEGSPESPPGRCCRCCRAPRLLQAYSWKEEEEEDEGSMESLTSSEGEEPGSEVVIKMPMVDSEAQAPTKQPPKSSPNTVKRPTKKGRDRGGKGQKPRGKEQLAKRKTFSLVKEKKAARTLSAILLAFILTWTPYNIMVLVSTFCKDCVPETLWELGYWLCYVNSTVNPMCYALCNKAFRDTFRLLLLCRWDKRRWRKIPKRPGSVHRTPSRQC
Kind of data set: Receptor binding activity, inhibition of [3H]pyrenzepine binding to M1. The note with it: 1 nM [3H]pyrenzepine, rat's brain except cerebellum; for inhibition at 10 µM: 10 μM test compound. How it is done: The binding ability of the test compounds to M1 was determined according to a modification of the method of Watson et al. (Life Sci., 32, 3001 (1983)). […] The mixture was incubated for 1 hour. The inhibition rate (%) of the binding with [3H]pyrenzepine was evaluated. The higher inhibition means the higher affinity of the test compound for M1 receptor.

The nature of data set [2]: Acute toxicity test, oral. The note with it: mouse, in vivo, ddY mice, 2 weeks observation. Format: in vivo, ddY male mice. The protocol: (§2) With respect to the compounds 1 to 86 shown in Table 1 as test compounds, the acute toxicity was examined using ddY mice according to the following method.
(§3) In each group, six male ddY mice weighing 27 to 30 g were employed. The compounds 1 to 86 suspended in an aqueous solution of 0.5% sodium carboxymethylcellulose were administered orally in a volume of 0.1 ml/10 g body weight. […] The LD50 (mg/kg) values were estimated from the ratio of the number of dead mice to the number of mice used.

For the next data set, the system named is ddY mice. In words: Acute toxicity test, oral. The note with it: dose of 200 mg/kg, 2 weeks. It counts as in vivo, ddY male mice. The protocol: as §2, §3
Data set [3] deals with forced swimming test with rats (duration of immobility). Kind of data set: Antidepressant activity: forced swimming test using rats. Format: in vivo, Wistar male rats. The conditions noted are these: p.o., 30 mg/kg. How it is done: as §1
That is, a rat (5 week-old) was placed into a glass cylinder having the inside diameter of 18 cm and the height of 40 cm which contained water (water temperature: 25° C.) up to its height of 15 cm. After 15 minutes, the rat was picked up followed by drying and then returned to his home cage. After 24 hours, the rat was again placed into the water in the same cylinder. The duration of immobility (the time rat kept motionless) was accumulatively measured with a stopwatch for five minutes (a five minutes' test). Each test compound was suspended in saline. The administration was carried out three times, at 24, 5 and 1 hour before the five minutes' test in case of an intraperitoneal administration or with only a single administration at 1 hour before the five minutes' test in case of an oral administration to examine the antidepressant effect.
The duration of immobility in Table 4 is the mean value for […] in each group. Suppression is expressed as a ratio in percentage of a reduction of the duration of immobility in the group administered with the test compound to that in the control group administered with saline alone.

Where [4] appears, read: Mus musculus, 3 mg/kg oral, mice with latency > 100 seconds, read-out: Ratio of memory.
Setting [5] is: Mus musculus, 1 mg/kg oral, mice with latency > 100 seconds, read-out: Ratio of memory.

`CCN1CCC(=Cc2cccc(Oc3ccccc3)c2)C1=O` [Compound 10] showed a Step-through latency in data set [1] (3 mg/kg oral) of 127 s. Further, the responders at 3 mg/kg in data set [1] (setting [4]) was 80%. This molecule returned an inhibition at 10 µM at M1 receptor of 90%. Moreover, in data set [2], the 50% lethal dose (LD50) at 336 h is at least 500 mg/kg.

In the case of `CCCN1CCC(=Cc2cccc(Oc3ccccc3)c2)C1=O` [Compound 11], in data set [1] (3 mg/kg oral), the Step-through latency stood at 182 s. Moreover, the responders at 3 mg/kg in data set [1] (setting [4]) was 63%. In addition, the inhibition at 10 µM at M1 receptor is 58%. The same molecule returned an LD50 at 336 h in data set [2] of at least 500 mg/kg.

`CC(C)N1CCC(=Cc2cccc(Oc3ccccc3)c2)C1=O` [Compound 16]: the Step-through latency in data set [1] (3 mg/kg oral) was found to be 176 s. Further, the responders at 3 mg/kg in data set [1] (setting [4]) came to 75%. On M1 receptor, the inhibition at 10 µM was found to be 75%. The molecule also had a 50% lethal dose (LD50) at 336 h in data set [2] of at least 500 mg/kg.

In the case of `C=CCN1CCC(=Cc2cccc(Oc3ccccc3)c2)C1=O` [Compound 20], 10 µM produced 88% inhibition at M1 receptor. Moreover, the LD50 at 336 h in data set [2] was at least 500 mg/kg.

`CON1CCC(=Cc2cccc(Oc3ccccc3)c2)C1=O` [Compound 22] came in with a Step-through latency in data set [1] (3 mg/kg oral) of 100 s. In data set [1] (setting [4]), the responders at 3 mg/kg came out at 50%. The same molecule returned an inhibition at 10 µM at M1 receptor of 63%. In data set [2], this molecule gave an LD50 at 336 h of at least 500 mg/kg.

Consider `O=C1C(=Cc2cccc(Oc3ccccc3)c2)CCN1CCF` [Compound 26], for which the Step-through latency in data set [1] (1 mg/kg oral) is 196 s. The responders at 1 mg/kg in data set [1] (setting [5]) amounted to 75%. Testing at 10 µM on M1 receptor gave an inhibition of 87%. The same molecule returned an LD50 at 336 h in data set [2] of at least 500 mg/kg.

For `NC(=O)CN1CCC(=Cc2cccc(Oc3ccccc3)c2)C1=O` [Compound 32], the Step-through latency in data set [1] (1 mg/kg oral) was 94 s. Besides, the responders at 1 mg/kg in data set [1] (setting [5]) turned out to be 50%. For the same molecule, at M1 receptor, the inhibition at 10 µM came to 91%. Further, the median lethal dose (LD50) at 336 h in data set [2] is at least 500 mg/kg.

In data set [1] (3 mg/kg oral), `O=C1NC(N2CCCC2)CC1=Cc1cccc(Oc2ccccc2)c1` (stereo not drawn) [Compound 59] displayed a Step-through latency of 157 s. Further, the responders at 3 mg/kg in data set [1] (setting [4]) is 50%. The molecule also registered an inhibition at 10 µM at M1 receptor of 56%. Also, the median lethal dose (LD50) at 336 h in data set [2] is at least 500 mg/kg.

In data set [2], `C(=C1CCNC1)c1cccc(Oc2ccccc2)c1` [Compound 63] yielded an LD50 at 336 h of at least 200 mg/kg. The Dead mice result in the data set on ddY mice was “no dead mice”.

As to `C(=C1CCNC1)c1cccc(Oc2ccccc2)c1` [Compound 64], the Step-through latency in data set [1] (3 mg/kg oral) was 150 s. Besides, the responders at 3 mg/kg in data set [1] (setting [4]) was found to be 63%. Moreover, 10 µM produced 90% inhibition at M1 receptor. For the same molecule, in data set [3] (1 hour before test), the Duration of immobility came out at 40 s. For the same molecule, the “Suppression of duration of immobility” value in data set [3] (vs saline) came to 82%.

On to `CN1CCC(=Cc2cccc(Oc3ccccc3)c2)C1` [Compound 65], for which the Step-through latency in data set [1] (1 mg/kg oral) was 117 s. Also, the responders at 1 mg/kg in data set [1] (setting [5]) stood at 50%. This molecule displayed an inhibition at 10 µM on M1 receptor of 52%. The LD50 at 336 h in data set [2] is at least 500 mg/kg.

Consider `CCN1CCC(=Cc2cccc(Oc3ccccc3)c2)C1` [Compound 66], for which the Step-through latency in data set [1] (0.3 mg/kg oral) turned out to be 221 s. The responders at 0.3 mg/kg in data set [1] (Mus musculus, 0.3 mg/kg oral, mice with latency > 100 seconds, read-out: Ratio of memory) amounted to 75%. Also, the inhibition at 1 µM on M1 receptor (1 μM test compound) came to 82%. Besides, the median lethal dose (LD50) at 336 h in data set [2] was at least 500 mg/kg.

Molecule `CCN1CCC(=Cc2cccc(Oc3ccccc3)c2)C1` [Compound 67] came in with a Step-through latency in data set [1] (1 mg/kg oral) of 100 s. Moreover, the responders at 1 mg/kg in data set [1] (setting [5]) is 50%. Also, the “Inhibition of the binding with [3H]pyrenzepine (M1)” value at M1 receptor (1 μM test compound) worked out at 78%.

Consider `CCN1CC(=Cc2cccc(Oc3ccccc3)c2)CC1C` (stereo not drawn) [Compound 75], for which the Step-through latency in data set [1] (1 mg/kg oral) was 160 s. Moreover, the responders at 1 mg/kg in data set [1] (setting [5]) was 50%. At M1 receptor (1 μM test compound), this molecule displayed an inhibition at 1 µM of 65%. In data set [2], this molecule registered an LD50 at 336 h of at least 500 mg/kg.

For `CCN1CC(=Cc2cccc(Oc3ccccc3)c2)C(C)C1` (stereo not drawn) [Compound 76], in data set [1] (1 mg/kg oral), the Step-through latency is 109 s. For the same molecule, the responders at 1 mg/kg in data set [1] (setting [5]) was 50%. Also, the inhibition at 1 µM on M1 receptor (1 μM test compound) was found to be 80%. This molecule came in with an LD50 at 336 h in data set [2] of at least 500 mg/kg.

Regarding `CC(C)N1CCC(=Cc2cccc(Oc3ccccc3)c2)C1` [Compound 84], the Step-through latency in data set [1] (1 mg/kg oral) stood at 176 s. Besides, the responders at 1 mg/kg in data set [1] (setting [5]) worked out at 75%. The same molecule registered an inhibition at 1 µM on M1 receptor (1 μM test compound) of 75%. This molecule also registered a median lethal dose (LD50) at 336 h in data set [2] of at least 500 mg/kg.

As usually defined, the inhibition is the drop in the measured response relative to a control, in per cent. Broadly, the LD50 is the dose expected to kill half of the subjects tested.

For the origin of these results see patent US5270339A, “Phenoxybenzene derivative” (Kanagafuchi Kagaku Kogyo Kabushiki Kaisha, priority 1991, dated 1993).
